The target of the assay is T1, PPARα (Homo sapiens, UniProt Q07869).
T1 construct: expressed in transfected cells; host or cells: human SK-Hep1 cells
T1 sequence (Q07869 1-468): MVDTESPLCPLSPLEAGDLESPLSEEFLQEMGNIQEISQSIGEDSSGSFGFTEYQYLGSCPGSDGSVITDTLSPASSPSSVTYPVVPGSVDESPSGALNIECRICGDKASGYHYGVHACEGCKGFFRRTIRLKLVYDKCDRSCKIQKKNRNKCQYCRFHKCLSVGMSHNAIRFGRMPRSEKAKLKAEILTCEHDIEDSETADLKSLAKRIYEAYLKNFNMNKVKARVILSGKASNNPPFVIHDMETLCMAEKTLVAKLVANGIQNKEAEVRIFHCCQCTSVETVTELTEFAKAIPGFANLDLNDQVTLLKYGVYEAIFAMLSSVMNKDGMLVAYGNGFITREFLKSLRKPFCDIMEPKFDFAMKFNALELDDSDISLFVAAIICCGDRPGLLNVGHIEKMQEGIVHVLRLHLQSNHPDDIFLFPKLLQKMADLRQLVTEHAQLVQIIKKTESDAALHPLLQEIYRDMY
Nature of the assay: PPARα luciferase reporter gene activation in SK-Hep1 cells cotransfected with PPARα expression vector. The format is cell-based. Conditions: for Fold Activation PPAR alpha, MEAN: mean of the two experiments in triplicate; for Fold Activation PPAR alpha: single values of triplicates, two experiments, relative to control; for balance of stimulation of PPAR-alpha and -gamma receptors: both receptors activated in the same concentration range. The source says: Analysis of the activation of PPARα and PPARγ is based on the transfection of a DNA allowing the expression of a reporter gene (the gene of luciferase) under the control of the PPARs, either endogenous in the case of PPARγ or cotransfected in the case of PPARα. The reporter plasmid J3TkLuc comprises three copies of the response element for PPARs of the human apo A-II gene (Staels, B et al. (1995), J. Clin. Invest., 95, 705-712) which are cloned upstream of the promoter of the thymidine kinase gene of the herpes simplex virus in the plasmid pGL3. This reporter gene was obtained by subcloning, in the plasmid pGL3, the plasmid J3TkCAT described above (Fajas, L et al. (1997), J. Biol. Chem., 272, 18779-18789). […] These cells were inoculated at a density of 20,000 cells per well (96-well plates) and transfected with 150 ng of reporter DNA complexed with a mixture of lipids. In the case of the SK-Hep1 cells, an expression vector for PPARα, described by Sher, T. et al. (1993), Biochemistry, 32, 5598-5604, is cotransfected. After 5 hours, the cells are washed twice and incubated for 36 hours in the presence of the test compound in a fresh culture medium comprising 10% foetal calf serum. At the end of incubation, the cells are lysed and the luciferase activity is measured.

Where “and” joins values, the source holds several entries; their conditions need not be identical. Identical values can stand only once.

As for `COc1ccc2c(c1)C(/C=C/C(C)=C/C(=O)O)=CC(C)(C)CO2` [Compound, 5-(7-methoxy-3,3-dimethyl-2,3-dihydro-1-benzoxepin-5-yl)-3-methyl-penta-2,4-dienoic acid], the “balance of stimulation of PPAR-alpha and -gamma receptors” value is reported as “well-balanced stimulation”. Where the note is “0.3 μm”, the “Fold Activation PPAR alpha, MEAN” value is 1.4 fold; the “Fold Activation PPAR alpha” value is 0.7 fold and 0.8 fold and 0.6 fold and 0.5 fold. Besides, the “Fold Activation PPAR alpha, MEAN” value (1 μm) worked out at 0.7 fold. Also, under “3 μm”, the “Fold Activation PPAR alpha, MEAN” value is 0.8 fold; the “Fold Activation PPAR alpha” value is 0.6 fold and 0.7 fold and 1.0 fold and 1.1 fold and 0.8 fold. Under “10 μm”, the “Fold Activation PPAR alpha, MEAN” value stood at 1.2 fold. The “Fold Activation PPAR alpha, MEAN” value (30 μm) is listed as 4.9 fold. Also, the “Fold Activation PPAR alpha, MEAN” value (50 μm) came to 8.0 fold. In addition, the “Fold Activation PPAR alpha, MEAN” value (100 μm) was determined as 6.9 fold. In addition, the “balance of stimulation of PPAR-alpha and -gamma receptors” value (listed as EMD 336340) is recorded as “balanced activity”.
